Test results: article PMC9645344, “Serotonin-releasing agents with reduced off-target effects” (Molecular Psychiatry, 2022)

Key:
[1] = target: 5-HT2B receptor (Homo sapiens, UniProt P41595); experiment: 5-HT receptor-dependent induction of GCamP6s fluorescence in HEK293 cells; type: cell-based; conditions: GCamP6s fluorescence normalized to 1 µM 5-HT
Protocol: (§1) All cloning steps were performed using NEB Builder (New England Biolabs, Frankfurt/Main, Germany). GCamP6s was cloned into pcDNA3.1. GCaMP is a genetically encoded calcium indicator which allows measurement of calcium flux. To allow for visual inspection of co-expressed 5-HT2 receptors, the enhanced cyan fluorescent protein (eCFP) was added to the C-Terminus of the 5-HT2 receptors. The resulting constructs were then cloned into pcDNA4-TO to allow tetracycline dependent expression.
(§2) In a first step, HEK293 cells were transfected with pcDNA6-TR and cells stably expressing the Tet-repressor were selected by the addition of blasticidin (60 µg ml^−1). In a second step, one of the resulting clones was transfected with one of the 5-HT2 receptor constructs and stable clones were selected by the addition of zeocin (150 µg ml^−1). Suitable clones were selected by visual inspection of the eCFP signal at the plasma membrane. In a last step, the eCFP positive clones were transfected with GCamp6s, and stable clones were selected using G418 (250 µg ml^−1). The resulting clones were sorted via FACS to isolate GCaMP6s (green fluorescent protein) positive cells and the resulting polyclonal cell lines were used for further experiments. Cells were maintained in DMEM supplemented with 2% fetal bovine serum, blasticidin, zeocin, and G418 at concentrations described above. To induce receptor expression, tetracycline (1 µg ml^−1) was added to the medium 18–24 h prior to the experiment.
(§3) Imaging experiments were performed at room temperature (22–27 °C). Medium was exchanged for KHB 10 min prior to the experiment and cells were continuously superfused with KHB, using a fast superfusion device (DAD12, ALA Scientific, Farmingdale, NY, USA). Test drugs (0.1, 1, 10 µM) or 5-HT (1 µM) were applied for 30 s, interleaved by KHB superfusion for 300 s. GCamp6s fluorescence was monitored using an inverted microscope (Nikon Eclipse Ti2) equipped with a Nikon ×40 WI (NA 1.25) objective (Nikon Europe, Amsterdam, Netherlands). Fluorescence was excited using a 470 nm LED (Coolled pe4000, Coolled, Andover, NY, USA). Excitation light was filtered through a 480/20 nm bandpass filter and reflected via 505 nm dichroic mirror. Emission light was filtered using a 535/25 nm optical bandpass filter (Nikon Europe, Amsterdam, Netherlands). Images were taken at a frequency of 1 image s^−1 with an exposure time of 20–30 ms using an sCMOS camera (Andor Zyla 5.5, Oxford Instruments, Abingdon, UK) and NIS-Elements 5.2 software (Laboratory Imaging, Praha, Czech Republic).
(§4) Image Stacks were background corrected by subtracting the mean intensity of […]. For each image the mean fluorescence intensity of 1–5 ROIs consisting of several clustered cells was measured. The change in intensity of the GCamP6s fluorescence was calculated as the intensity at the end of test drug application minus the intensity before substance application, normalized to the increase of fluorescence evoked by the application of 1 µM 5-HT. Data represent 1–5 fields of view from three independent experiments

[2] = target: T1, 5-HT2C receptor (Homo sapiens, UniProt P28335); experiment: as above; type: cell-based; conditions: 1 µM; GCamP6s fluorescence normalized to 1 µM 5-HT
T1 construct: expressed in transfected cells
T1 sequence (P28335 33-458): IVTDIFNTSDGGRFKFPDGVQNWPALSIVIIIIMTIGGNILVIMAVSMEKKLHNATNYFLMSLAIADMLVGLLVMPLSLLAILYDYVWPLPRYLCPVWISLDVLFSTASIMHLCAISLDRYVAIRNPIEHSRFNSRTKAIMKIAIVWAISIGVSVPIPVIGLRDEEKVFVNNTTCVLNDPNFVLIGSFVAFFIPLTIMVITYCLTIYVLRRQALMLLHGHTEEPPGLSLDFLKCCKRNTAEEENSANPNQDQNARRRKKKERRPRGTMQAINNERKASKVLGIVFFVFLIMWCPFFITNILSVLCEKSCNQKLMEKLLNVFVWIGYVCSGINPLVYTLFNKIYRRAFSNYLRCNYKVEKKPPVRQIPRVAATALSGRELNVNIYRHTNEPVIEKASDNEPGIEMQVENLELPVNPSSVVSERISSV
Protocol: as §1, §2, §3, §4

5-HT2B receptor, sequence (P41595 whole entry): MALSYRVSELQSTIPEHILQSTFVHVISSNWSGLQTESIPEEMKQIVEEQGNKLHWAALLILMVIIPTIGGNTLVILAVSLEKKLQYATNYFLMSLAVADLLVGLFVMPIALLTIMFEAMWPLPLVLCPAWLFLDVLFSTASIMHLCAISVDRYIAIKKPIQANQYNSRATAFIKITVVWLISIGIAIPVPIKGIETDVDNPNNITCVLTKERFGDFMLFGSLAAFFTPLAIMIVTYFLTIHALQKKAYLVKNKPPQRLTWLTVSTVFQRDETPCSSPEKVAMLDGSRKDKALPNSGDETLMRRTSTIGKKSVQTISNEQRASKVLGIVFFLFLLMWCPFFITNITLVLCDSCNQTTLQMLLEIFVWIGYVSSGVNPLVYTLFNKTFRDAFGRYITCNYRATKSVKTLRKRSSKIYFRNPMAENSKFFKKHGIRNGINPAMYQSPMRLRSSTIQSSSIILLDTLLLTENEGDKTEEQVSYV

| Compound | activation of 5-HT2B receptor ([1]; 1 µM) | activation of 5-HT2C receptor [2] | activation of 5-HT2B receptor ([1]; 10 µM) |
| --- | --- | --- | --- |
| CN[C@@H](C)C(=O)c1ccc(C(F)(F)F)cc1 [S-4-TFMMC, 4-trifluoromethyl-N-methylcathinone] | neither test drug activated | neither test drug activated |  |
| Cc1ccc(C(=O)[C@H](C)N)cc1 [S-4-MC, 4-methylcathinone] | neither test drug activated | neither test drug activated | moderate effects |
